The target in one assay is T1, CCK receptor (pancreas) (Rattus norvegicus, UniProt P30551).
T1 construct: The whole pancreas was dissected free of fat tissue and was homogenized; from tissue; host or cells: whole pancreas of male Sprague-Dawley rats, homogenate membranes
T1 sequence (P30551 1-444): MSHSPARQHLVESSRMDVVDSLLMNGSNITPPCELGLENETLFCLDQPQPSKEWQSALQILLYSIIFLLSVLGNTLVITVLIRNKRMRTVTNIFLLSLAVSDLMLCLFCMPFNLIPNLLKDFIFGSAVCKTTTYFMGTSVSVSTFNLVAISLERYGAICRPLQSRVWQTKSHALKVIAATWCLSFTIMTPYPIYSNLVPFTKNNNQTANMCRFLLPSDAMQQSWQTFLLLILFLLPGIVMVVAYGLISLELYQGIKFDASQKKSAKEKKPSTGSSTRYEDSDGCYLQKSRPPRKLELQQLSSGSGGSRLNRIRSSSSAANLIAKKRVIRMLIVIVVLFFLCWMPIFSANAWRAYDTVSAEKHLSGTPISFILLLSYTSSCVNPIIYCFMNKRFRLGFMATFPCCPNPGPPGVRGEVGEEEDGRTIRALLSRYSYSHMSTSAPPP
The assay is described as follows: CCK Receptor Binding (Pancreas), inhibition of specific 125I-CCK-8 binding. More on the design: species or system rat (male Sprague-Dawley). How it is done: 1. CCK Receptor Binding (Pancreas)
CCK-8 sulphated was radiolabelled with ^125 I-Bolton Hunter reagent (2000 Ci/mmole). Receptor binding was performed according to Chang and Lotti (Proc. Natl. Acad. Sci. 83, 4923-4926, 1986) with minor modifications.
Male Sprague-Dawley rats (150-200 g) were sacrificed by decapitation. The whole pancreas was dissected free of fat tissue and was homogenized in 25 volumes of ice-cold 10 mM N-2-hydroxyethyl-piperazine-N'-2-ethane sulphonic acid (HEPES) buffer with 0.1% soya bean trypsin inhibitor (pH 7.4 at 25° C.) with a Kinematica Polytron. The homogenates were centrifuged at 47,800 g for 10 min. Pellets were resuspended in 10 volumes of binding assay buffer (20 mM (HEPES)), 1 mM ethylene glycol-bis-(β-aminoethylether-N,N'-tetraacetic acid) (EGTA), 5 mM MgCl2, 150 mM NaCl, bacitracin 0.25 mg/ml, soya bean trypsin inhibitor 0.1 mg/ml, and bovine serum albumin 2 mg/ml pH 6.5 at 25° C.) using a Teflon (trademark) homogenizer, 15 strokes at 500 rpm. The homogenate was further diluted in binding assay buffer to give a final concentration of 0.5 mg original wet weight/1 ml buffer. […] All assays were run in duplicate. The reaction mixtures were incubated at 25° C. for 2 hours and the reaction terminated by rapid filtration (Brandell 24 well cell harvester) over Whatman GF/C filters, washing 3×4 mls with ice-cold 100 Mm NaCl. The radioactivity on the filters was counted with a LKB gamma counter.

The target of another assay is T2, CCK receptor (brain) (Cavia porcellus, UniProt H0VZC5).
T2 construct: the cortex was removed and homogenized in 25 mL ice-cold 0.32M sucrose; from tissue; host or cells: cortex of male Hartley guinea pigs, P2 membranes
T2 sequence (H0VZC5 1-426): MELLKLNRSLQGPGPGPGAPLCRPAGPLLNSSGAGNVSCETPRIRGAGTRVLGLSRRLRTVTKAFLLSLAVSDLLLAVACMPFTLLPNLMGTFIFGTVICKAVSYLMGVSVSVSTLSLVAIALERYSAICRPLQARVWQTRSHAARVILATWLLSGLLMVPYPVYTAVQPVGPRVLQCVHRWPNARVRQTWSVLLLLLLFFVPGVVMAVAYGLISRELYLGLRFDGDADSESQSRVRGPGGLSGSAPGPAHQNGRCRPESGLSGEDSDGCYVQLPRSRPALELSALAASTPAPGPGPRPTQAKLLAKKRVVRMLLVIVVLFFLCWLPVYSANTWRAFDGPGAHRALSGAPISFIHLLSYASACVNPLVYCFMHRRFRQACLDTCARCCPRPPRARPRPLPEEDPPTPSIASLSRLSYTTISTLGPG
Kind of assay: CCK Receptor Binding (Brain), inhibition of specific 125I-CCK-8 binding. The arrangement: species or system guinea pig (male Hartley). As to the method: 2. CCK Receptor Binding (Brain)
CCK-8 sulphated was radiolabelled and the binding was performed according to the description for the pancreas method with minor modifications.
Male Hartley guinea pigs (300-500 g) were sacrificed by decapitation and the cortex was removed and homogenized in 25 mL ice-cold 0.32M sucrose. The homogenates were centrifuged at 1000 g for 10 minutes and the resulting supernatant was recentrifuged at 20,000 g for 20 minutes. The P2 pellet was resuspended in binding assay buffer (20mM HEPES, 5 mM MgCl2, 0.25 mg/ml bacitracin, 1 mM EGTA pH 6.5 at 25° C.), using a Teflon (trademark) homogenizer (5 strokes at 500 rpm) to give a final concentration of 10 mg original wet weight/1.2 ml buffer. […] All assays were run in duplicate. The reaction mixtures were incubated at 25° C. for 2 hours and then the reaction was terminated by rapid filtration (Brandell 24 well cell harvester) on Whatman GF/C filters with 3×5 ml washes of cold 100 mM NaCl. The radioactivity on the filters was counted with a LKB gamma counter.

The mark [1] stands for this setting: rat pancreas membranes, 50 pM 125I-CCK-8, 25° C., 2 hours, pH 6.5, read-out: IC50 125I-CCK Pancreas.
Setting [2] is: guinea pig cortex membranes, 50 pM 125I-CCK-8, 25° C., 2 hours, pH 6.5, read-out: IC50 125I-CCK Brain.

Structures are written as SMILES. pIC50: −log10 of the molar value. Read-outs that look alike come from different tables or passages of the source.

Usually pIC50 stands for −log10 of the IC50, conventionally taken in molar units.

Take `CN1C(=O)C(NC(=O)Nc2cccc(CNc3nnn[nH]3)c2)N=C(C2CCCCC2)c2ccccc21` (racemic) [Example 1, N-[3(R,S)-5-Cyclohexyl-2,3-dihydro-1-methyl-2-oxo-1H-1,4-benzodiazepin-3-yl]-N'-[3-{(tetrazol-5-yl)aminomethyl}phenyl]urea]: the results for the pIC50 at CCK receptor (pancreas) (setting [1]) and at CCK receptor (brain) (setting [2]) were 8.02 and 9.09, respectively. With `CN1C(=O)C(NC(=O)Nc2cccc(Nc3nnn[nH]3)c2)N=C(C2CCCCC2)c2ccccc21` (racemic) [Example 2, N-[3(R,S)-5-Cyclohexyl-2,3-dihydro-1-methyl-2-oxo-1H-1,4-benzodiazepin-3-yl]-N'-[3-{(tetrazol-5-yl)amino}phenyl]urea], the pIC50 was 8.19 at CCK receptor (pancreas) (setting [1]) and 9.51 on CCK receptor (brain) (setting [2]). With `CN1C(=O)C(NC(=O)Nc2cccc(N(C)c3nnn[nH]3)c2)N=C(C2CCCCC2)c2ccccc21` (racemic) [Example 3, N-[3(R,S)-5-Cyclohexyl-2,3-dihydro-1-methyl-2-oxo-1H-1,4-benzodiazepin-3-yl]-N'-[3-{N-methyl-N-(tetrazol-5-yl)amino}phenyl]urea], the pIC50 at CCK receptor (pancreas) (setting [1]) is 8.00; on CCK receptor (brain) (setting [2]), 9.96. Regarding `CN1C(=O)C(C)(NC(=O)Nc2cccc(CNc3nnn[nH]3)c2)N=C(c2ccccc2)c2ccccc21` (racemic) [Example 15, N-[3-(R,S)-2,3-Dihydro-1,3-dimethyl-2-oxo-5-phenyl-1H-1,4-benzodiazepin-3-yl]-N'-[3-{(tetrazol-5-yl)aminomethyl}phenyl]urea], the negative-log IC50 (pIC50) at CCK receptor (pancreas) was 7.37; on CCK receptor (brain) (setting [2]), 5.89. `Cc1ccc(NC(=O)NC2N=C(c3ccccc3)c3ccccc3N(C(C)(C)C)C2=O)cc1Nc1nnn[nH]1` (racemic) [Example 16, N-[3(R,S)-1-tert-Butyl-2,3-dihydro-2-oxo-5-phenyl-1H-1,4-benzodiazepin-3-yl]-N'-[4-methyl-3-{(tetrazol-5-yl)amino}phenyl]urea]: the negative logarithm of the IC50 (pIC50) at CCK receptor (pancreas) is 5.44; at CCK receptor (brain) (setting [2]), 6.30. With `CCCN1C(=O)C(NC(=O)Nc2cccc(CNc3ncc[nH]3)c2)N=C(C2CCCCC2)c2ccccc21` (racemic) [Example 18, N-[3(R,S)-5-Cyclohexyl-2,3-dihydro-2-oxo-1-propyl-1H-1,4-benzodiazepin-3-yl]N'-[3-[(1H-imidazol-2-ylamino)methyl]phenyl]urea], the figures for the pIC50 at CCK receptor (pancreas) (setting [1]) and at CCK receptor (brain) (setting [2]) were 6.96 and 7.85, respectively.

Turning to `CCCN1C(=O)C(NC(=O)Nc2cccc(Nc3ncc[nH]3)c2)N=C(C2CCCCC2)c2ccccc21` (racemic) [Example 19, N-[3(R,S)-5-Cyclohexyl-2,3-dihydro-2-oxo-1-propyl-1H-1,4-benzodiazepin-3-yl]N'-[3-[(1H-imidazol-2-yl)amino]phenyl]urea], the results for the pIC50 at CCK receptor (pancreas) (setting [1]) and at CCK receptor (brain) (setting [2]) were 8.88 and 7.08, respectively.

Take `CN1C(=O)C(NC(=O)Nc2cccc(CNc3ncc[nH]3)c2)N=C(C2CCCCCC2)c2ccccc21` (racemic) [Example 20, N-[3(R,S)-5-Cycloheptyl-2,3-dihydro-1-methyl-2-oxo-1H -1,4-benzodiazepin-3-yl]N'-[3-[(1H-imidazol-2-ylamino)methyl]phenyl]urea]: the values for the pIC50 on CCK receptor (pancreas) (setting [1]) and at CCK receptor (brain) (setting [2]) were 7.07 and 7.47, respectively.

In the case of `CCCN1C(=O)C(NC(=O)Nc2cccc(N(C)c3nnn[nH]3)c2)N=C(N2CCN(C)CC2)c2ccccc21` (single isomer, unassigned; (-)) [Example 17, (-)-N-[2,3-Dihydro-5-(4-methylpiperazin-1-yl)-2-oxo-1-propyl-1H-1,4-benzodiazepin-3-yl]-N'-[3-{N-methyl-N-(tetrazol-5-yl)amino}phenyl]urea], the values for the negative logarithm of the IC50 (pIC50) at CCK receptor (pancreas) (setting [1]) and on CCK receptor (brain) (setting [2]) were under 5.52 and 9.03, respectively. For the compound `CN1C(=O)[C@H](NC(=O)Nc2cccc(N(C)c3nnn[nH]3)c2)N=C(C2CCCCC2)c2ccccc21` [Example 4, (+)-N-[3(R)-5-Cyclohexyl-2,3-dihydro-1-methyl-2-oxo-1H-1,4-benzodiazepin-3-yl]-N'-[3-{N-methyl-N-(tetrazol-5-yl)amino}phenyl]urea], the pIC50 at CCK receptor (pancreas) (setting [1]) is 6.40; at CCK receptor (brain) (setting [2]), 10.00. `CN1C(=O)[C@H](NC(=O)Nc2cccc(Nc3nnn[nH]3)c2)N=C(C2CCCCC2)c2ccccc21` [Example 5, (+)-N-[3(R)-5-Cyclohexyl-2,3-dihydro-1-methyl-2-oxo-1H-1,4-benzodiazepin-3-yl]-N'-[3-{(tetrazol-5-yl)amino}phenyl]urea]: the results for the negative logarithm of the IC50 (pIC50) on CCK receptor (pancreas) (setting [1]) and at CCK receptor (brain) (setting [2]) were 6.70 and 9.15, respectively. For `CN1C(=O)[C@H](NC(=O)Nc2cccc(CNc3nnn[nH]3)c2)N=C(C2CCCCC2)c2ccccc21` [Example 6, (+)-N-[3(R)-5-Cyclohexyl-2,3-dihydro-1-methyl-2-oxo-1H-1,4-benzodiazepin-3-yl]-N'-[3-{(tetrazol-5-yl)aminomethyl}phenyl]urea] the same measures were 6.82 and 9.55. For the compound `CN1C(=O)[C@H](NC(=O)Nc2cccc(N(C)c3nn[nH]n3)c2)N=C(c2ccccc2)c2ccccc21` [Example 7, (+)-N-[3(R)-2,3-Dihydro-1-methyl-2-oxo-5-phenyl-1H-1,4-benzodiazepin-3-yl]-N'-[3-{N-methyl-N-(tetrazol-5-yl)amino}phenyl]urea], the pIC50 at CCK receptor (pancreas) is under 5.52; on CCK receptor (brain), 9.24. On to `CN1C(=O)[C@H](NC(=O)Nc2cccc(Nc3nn[nH]n3)c2)N=C(c2ccccc2)c2ccccc21` [Example 8, (+)-N-[3(R)-2,3-Dihydro-1-methyl-2-oxo-5-phenyl-1H-1,4-benzodiazepin-3-yl]-N'-[3-{(tetrazol-5-yl)amino}phenyl]urea], for which the negative logarithm of the IC50 (pIC50) was under 5.52 at CCK receptor (pancreas) and 8.24 at CCK receptor (brain). For `CN1C(=O)[C@H](NC(=O)Nc2cccc(CNc3nn[nH]n3)c2)N=C(c2ccccc2)c2ccccc21` [Example 9, (+)-N-[3(R)-2,3-Dihydro-1-methyl-2-oxo-5-phenyl-1H-1,4-benzodiazepin-3-yl]-N'-[3-{(tetrazol-5-yl)aminomethyl}phenyl]urea] the same measures were under 5.52 and 8.13. On to `Cc1ccc(NC(=O)N[C@@H]2N=C(C3CCCCC3)c3ccccc3N(C)C2=O)cc1N(C)c1nn[nH]n1` [Example 11, (+)-N-[3(R)-5-Cyclohexyl-2,3-dihydro-1-methyl-2-oxo-1H-1,4-benzodiazepin-3-yl]-N'-[4-methyl-3-{N-methyl-N-(tetrazol-5-yl)amino}phenyl]urea], for which the negative-log IC50 (pIC50) on CCK receptor (pancreas) (setting [1]) is 6.22. On CCK receptor (brain), `CN1C(=O)[C@H](NC(=O)Nc2ccc3c(c2)N(c2nn[nH]n2)CC3)N=C(c2ccccc2)c2ccccc21` [Example 14, (+)-N-[3(R)-2,3-Dihydro-1-methyl-2-oxo-5-phenyl-1H-1,4-benzodiazepin-3-yl]-N'-[1-(tetrazol-5yl)indolin-6-yl]urea] showed a pIC50 of 9.96.

The values above are taken from US5681833A, “Benzodiazepine derivatives” (Merck, Sharp & Dohme Ltd., priority 1992, dated 1997).
